Measurements published in ChEMBL document CHEMBL5233270, “DYRK1A Inhibitors as Potential Therapeutics for β-Cell Regeneration for Diabetes” (J Med Chem, 2021).
Values belong to the compound of their own block, whether it stands above or below them.

Key:
[1] = Selectivity ratio of CC50 for mouse R7T1 cells to ECmin for mouse pancreatic islet cells; format: toxicity; conditions: R7T1 cells (CC50) and pancreatic islet cells (ECmin)
[2] = Cytotoxicity against mouse R7T1 cells assessed as reduction in cell viability; format: functional
[3] = Induction of human Pancreatic beta cell proliferation at 50 mg/kg measured after 5 days in presence of EdU incorporation by Cell-Titer Glo assay; format: functional; conditions: 120 h
[4] = Synergistic […] activity against human Pancreatic beta cell proliferation in presence of GLP1 at 5 nM by Ki-67 immuno labelling assay; format: functional
[5] = Synergistic […] activity against human Pancreatic beta cell proliferation in NSG mouse model at 0.5 ug/kg by immuno labelling assay; format: functional
[6] = molecular target: Glycogen synthase kinase-3 beta (Homo sapiens, UniProt P49841); test: Inhibition of GSK3beta (unknown origin)
[7] = AUC (0 to infinity) in mouse at 1 mg/kg, po; format: ADME, organism-based; parameters: dose 1 mg/kg, route po; conditions: in vivo
[8] = Volume of distribution at steady state in mouse, po; format: ADME; conditions: in vivo
[9] = molecular target: Dual specificity protein kinase CLK1/CLK2/CLK4 (Homo sapiens) (UniProt Q9HAZ1+P49759+P49760); test: Inhibition of CLK1/2/4 (unknown origin) relative to control; format: protein assay; conditions: concentration not given here
[10] = Induction of rat Pancreatic beta cell proliferation at 1 uM assessed as increase in fold chain after 6 days in presence of EdU incorporation by Cell-Titer Glo assay; format: functional; conditions: time 6 day

Chain of Dual specificity protein kinase CLK1/CLK2/CLK4 (Homo sapiens) (P49759 whole entry, looked up): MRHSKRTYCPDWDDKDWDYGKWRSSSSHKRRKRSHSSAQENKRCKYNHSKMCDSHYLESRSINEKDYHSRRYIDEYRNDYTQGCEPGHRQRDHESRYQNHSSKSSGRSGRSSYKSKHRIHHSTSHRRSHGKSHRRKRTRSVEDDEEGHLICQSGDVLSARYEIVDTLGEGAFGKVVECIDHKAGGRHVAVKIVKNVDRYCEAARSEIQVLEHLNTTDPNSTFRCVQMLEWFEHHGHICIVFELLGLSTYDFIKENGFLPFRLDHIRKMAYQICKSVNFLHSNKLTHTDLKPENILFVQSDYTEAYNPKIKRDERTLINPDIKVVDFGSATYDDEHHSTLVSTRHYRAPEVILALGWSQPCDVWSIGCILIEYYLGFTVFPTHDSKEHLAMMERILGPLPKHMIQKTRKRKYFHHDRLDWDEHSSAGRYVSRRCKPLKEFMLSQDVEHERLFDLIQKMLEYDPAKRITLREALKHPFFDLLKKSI
Chain of Dual specificity protein kinase CLK1/CLK2/CLK4 (Homo sapiens) (P49760 whole entry, looked up): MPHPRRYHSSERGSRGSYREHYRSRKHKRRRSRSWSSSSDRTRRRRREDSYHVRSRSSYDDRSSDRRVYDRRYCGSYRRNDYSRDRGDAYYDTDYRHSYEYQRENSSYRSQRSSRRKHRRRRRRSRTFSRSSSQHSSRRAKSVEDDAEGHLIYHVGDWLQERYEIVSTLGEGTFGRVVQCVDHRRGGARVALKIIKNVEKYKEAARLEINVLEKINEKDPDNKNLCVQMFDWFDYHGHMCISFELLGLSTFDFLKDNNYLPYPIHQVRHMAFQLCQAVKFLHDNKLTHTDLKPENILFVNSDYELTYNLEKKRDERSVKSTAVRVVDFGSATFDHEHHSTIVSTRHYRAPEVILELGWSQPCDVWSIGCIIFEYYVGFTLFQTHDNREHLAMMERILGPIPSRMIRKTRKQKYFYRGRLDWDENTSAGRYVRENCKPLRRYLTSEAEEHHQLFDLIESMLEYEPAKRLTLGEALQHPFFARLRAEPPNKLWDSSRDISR
Chain of Dual specificity protein kinase CLK1/CLK2/CLK4 (Homo sapiens) (Q9HAZ1 whole entry, looked up): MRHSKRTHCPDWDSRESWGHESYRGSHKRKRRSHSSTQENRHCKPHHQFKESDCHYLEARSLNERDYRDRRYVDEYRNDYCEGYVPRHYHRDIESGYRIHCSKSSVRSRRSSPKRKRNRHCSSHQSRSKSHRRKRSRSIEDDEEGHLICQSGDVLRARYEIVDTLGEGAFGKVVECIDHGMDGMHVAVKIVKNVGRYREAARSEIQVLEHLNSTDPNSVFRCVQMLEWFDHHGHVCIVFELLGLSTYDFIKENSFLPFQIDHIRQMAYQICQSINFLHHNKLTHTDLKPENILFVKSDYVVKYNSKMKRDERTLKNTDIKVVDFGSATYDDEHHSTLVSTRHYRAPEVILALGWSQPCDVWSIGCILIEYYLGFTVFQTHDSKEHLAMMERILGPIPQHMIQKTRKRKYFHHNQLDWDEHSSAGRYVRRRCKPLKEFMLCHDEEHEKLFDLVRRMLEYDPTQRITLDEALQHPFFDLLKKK
Chain of Glycogen synthase kinase-3 beta (P49841 whole entry): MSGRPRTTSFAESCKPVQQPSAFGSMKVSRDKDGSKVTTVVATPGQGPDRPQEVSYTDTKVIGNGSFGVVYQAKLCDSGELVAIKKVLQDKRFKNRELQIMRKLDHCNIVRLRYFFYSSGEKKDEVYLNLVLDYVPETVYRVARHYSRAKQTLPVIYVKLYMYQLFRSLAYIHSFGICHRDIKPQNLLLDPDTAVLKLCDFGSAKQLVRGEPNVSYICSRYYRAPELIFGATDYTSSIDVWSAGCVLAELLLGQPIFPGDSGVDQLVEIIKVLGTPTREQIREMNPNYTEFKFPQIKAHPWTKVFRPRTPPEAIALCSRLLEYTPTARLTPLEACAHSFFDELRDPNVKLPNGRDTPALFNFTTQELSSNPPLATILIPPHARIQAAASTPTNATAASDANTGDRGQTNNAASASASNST

SMILES: CCOC(=O)c1cnc2ccc(-c3ccncc3)nc2c1N[C@H]1CC[C@H](CN2CCOCC2)CC1
- selectivity ratio [1]: 143
- Emin [2]: 3.3 nM

SMILES: Nc1ncc(-c2ccccc2)nc1C(=O)Nc1cnccc1N1CCC(C(=O)O)CC1
- EC50 [3]: 0.76 nM

SMILES: COc1ccc2c(c1)[nH]c1c(C)nccc12 [HARMINE]
- Activity [4]: 5%
- Activity [5]: 0.8%

- IC50 [6]: > 8300 nM
SMILES: COc1ccc2c(c1)[nH]c1c(CO)nccc12

- AUC [7]: 3.27 µM·h
- Vdss [8]: 11 L/kg
- inhibition [9]: 90%
SMILES: CCN1CCN(C(=O)Nc2cc(-c3cn(C4CCOCC4)c4cnccc34)ccn2)CC1

SMILES: CC(C)Oc1ccc(F)c(-c2cnc(N)c(C(=O)Nc3cnccc3N3CCCC(C(=O)O)C3)n2)c1 (centres undefined)
- Emin [2]: <100 nM

SMILES: Nc1ncnc2c1c(I)cn2[C@@H]1O[C@H](CO)[C@@H](O)[C@H]1O [IODOTUBERCIDIN]
- fold change (FC) [10]: 10

SMILES: CCOC(=O)c1cnc2ccc(-c3cc(Cl)c(O)c(Cl)c3)nc2c1NC1CCN(C)CC1
- selectivity ratio [1]: 117
- Emin [2]: 10 nM

SMILES: CCOC(=O)c1cnc2ccc(-c3ccncc3)nc2c1N[C@H]1CC[C@H](CN(C)C)CC1
- selectivity ratio [1]: 259
